Reference: patent US7892764B2, “System for seizure suppression” (priority 2006, dated 2011)

Tested on: acute hippocampal slices
Test: Low Mg2+-induced injury of acute hippocampal slices, LDH release
Format: cell-based
Conditions: aCSF without Mg2+ plus 100 μM amiloride for 2 hr, medium collected 6 hr after incubation
Method: To determine whether ASIC blockade affects seizure-induced neuronal injury, we tested the effect of ASIC blockade on low Mg^2+-induced injury of acute hippocampal slices. 400 μm-thick coronal slices were cut and placed on a Millipore membrane in 6-well plates (2 slices in each well). Slices were randomly divided into three groups treated with the following different solutions (for 2 hr): oxygenated aCSF with normal Mg^2+; oxygenated aCSF without Mg^2+; oxygenated aCSF without Mg^2+ plus 100 μM amiloride. 100 μL medium was collected from each slice 6 hr following the incubation for the measurement of lactate dehydrogenase (LDH). The LDH value was then normalized to the maximal releasable LDH to give % of cell death. With aCSF containing normal Mg^2+, 6.2±0.9% of maximal LDH release was recorded. In the absence of Mg^2+, this value was increased to 13.0±2.2%. Addition of aniloride decreased relative LDH release to 6.0±0.4% (n=3).
LDH Assay. Lactate dehydrogenase (LDH) is a stable cytoplasmic enzyme present in all cells. […] LDH assays were performed using the Cytotoxicity Detection Kit (Cat#1644793, Roche Molecular Biochemicals) and a spectrophotometric mutiwell plate reader (SPECTRAmax, Molecular Devices). […] Absorbance at OD490 nm was measured 30 min after the reaction. Absorbance at a reference wavelength (OD620 nm) was subtracted from the measurement.

NC(N)=NC(=O)c1nc(Cl)c(N)nc1N [amiloride, 3,5-diamino-6-chloro-N(diaminomethylidene)pyrazine-2-carboxamide]
relative LDH release (% of maximal releasable LDH, cell death): 6.0±0.4%
